Results from US8835498B2, “Anti-wrinkle agents” (Pola Chemical Industries Inc., priority 2008, dated 2014).

Tested on: hairless mice
Experiment: Evaluation of wrinkle-reducing effect using photoaging model (UVB-irradiated hairless mice, replica wrinkle score)
Assay type: in vivo
Settings: 0.5% by mass in ethanol (lotion), 100 μL once a day for 8 weeks on dorsal portions after 10 weeks of UVB irradiation; replicas scored visually 1 to 6; vs ethanol control
Procedure: A wrinkle-reducing effect of Cosmetic 1 above was evaluated in a test using a photoaging model.
A total of ten hairless mice, which were six-week-old at the time of the start of a test, were used and divided into two groups each consisting of five mice, i.e., a control group (ethanol solvent administration group) and a sample administration group. The dorsal portions of the hairless mice were irradiated with UVB at a frequency of once a day and three times a week for 10 consecutive weeks to induce photoaging. The UVB irradiation amount was set to 50 mJ/cm^2 for the first week and to 100 mJ/cm^2 on week 2 or later.
In the sample administration group, Cosmetic 1 above was administered to the dorsal portions of the hairless mice. Cosmetic 1 started to be administered to the dorsal portions of the hairless mice on the following day after the completion of the UVB irradiation for 10 weeks, and administered at a dose of 100 μL once a day for 8 weeks. In the control group, the same treatments were performed as those in sample administration group except that ethanol was administered in place of Cosmetic 1 (Lotion 1) in Table 1. […] The scoring operation was performed by three measurers separately and evaluated visually with scores of 1 to 6 at intervals of 0.5. An average value of the results was calculated.

For `CSCC(NC(=O)c1ccc(C)cc1)C(=O)O` (stereo not shown) [Compound 2, [S-methyl-N-toluyl]cysteine], which “wrinkle-reducing effect (wrinkle score)” value is on record?
Its value is “excellent wrinkle-reducing effects”.
